According to PMC11923385, “Rational Design, Synthesis, and Biological Assessment of Potential Indole‐Capped HDAC6 Inhibitors for Gastric Cancer Suppression” (MedComm, 2025):
Like-named read-outs stand apart in the source and are kept apart here.

What was measured:
[1] = target: T1, HDAC6 (Homo sapiens, UniProt Q9UBN7); test: CETSA of HDAC6 at the cellular level; format: cell-based
T1 sequence (Q9UBN7 1-1215): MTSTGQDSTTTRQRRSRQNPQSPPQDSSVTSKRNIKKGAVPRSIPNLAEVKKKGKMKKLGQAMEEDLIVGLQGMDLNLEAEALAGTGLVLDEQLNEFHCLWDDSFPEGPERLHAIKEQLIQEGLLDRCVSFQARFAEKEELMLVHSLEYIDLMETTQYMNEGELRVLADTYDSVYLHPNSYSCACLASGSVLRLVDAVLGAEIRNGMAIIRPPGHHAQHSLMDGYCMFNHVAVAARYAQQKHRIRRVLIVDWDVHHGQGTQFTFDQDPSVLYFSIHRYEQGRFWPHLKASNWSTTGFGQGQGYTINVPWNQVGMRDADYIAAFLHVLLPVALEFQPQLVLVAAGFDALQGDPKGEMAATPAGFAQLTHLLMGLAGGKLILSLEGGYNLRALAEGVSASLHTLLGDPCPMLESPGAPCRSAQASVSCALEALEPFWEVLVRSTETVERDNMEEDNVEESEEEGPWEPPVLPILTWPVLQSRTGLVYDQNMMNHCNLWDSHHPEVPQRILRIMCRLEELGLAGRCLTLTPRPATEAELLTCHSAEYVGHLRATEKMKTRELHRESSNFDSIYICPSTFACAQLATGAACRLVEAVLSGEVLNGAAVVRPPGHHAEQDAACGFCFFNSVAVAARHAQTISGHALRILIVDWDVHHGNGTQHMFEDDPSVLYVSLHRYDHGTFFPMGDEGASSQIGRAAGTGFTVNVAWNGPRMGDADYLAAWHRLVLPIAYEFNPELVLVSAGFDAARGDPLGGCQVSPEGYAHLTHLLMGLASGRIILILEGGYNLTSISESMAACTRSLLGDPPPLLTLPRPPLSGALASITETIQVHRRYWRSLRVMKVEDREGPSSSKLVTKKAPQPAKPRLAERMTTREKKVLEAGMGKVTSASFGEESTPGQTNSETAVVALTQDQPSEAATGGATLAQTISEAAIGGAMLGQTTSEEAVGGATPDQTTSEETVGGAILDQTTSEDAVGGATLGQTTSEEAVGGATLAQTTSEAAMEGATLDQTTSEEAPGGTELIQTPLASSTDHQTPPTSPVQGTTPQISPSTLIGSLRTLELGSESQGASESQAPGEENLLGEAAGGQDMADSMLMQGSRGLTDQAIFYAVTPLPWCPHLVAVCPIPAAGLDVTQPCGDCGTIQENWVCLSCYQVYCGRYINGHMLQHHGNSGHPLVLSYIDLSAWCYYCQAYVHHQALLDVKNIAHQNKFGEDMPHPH

[2] = target: HDAC2 (Homo sapiens, UniProt Q92769); test: HDAC2 enzyme activity assay; format: biochemical; settings: HDAC2 compared to HDAC6
[3] = tested on: gastric cancer cells; test: Apoptosis, mitochondrial membrane potential and apoptosis protein expression in gastric cancer cells; format: cell-based
Method: (§1) Following the indicated treatment, cells were collected and lysed using the recommended amount of radio immunoprecipitation assay (RIPA) buffer from KMT Bio, China, according to the provided instructions. The protein concentration in the lysate was determined using a bicinchoninic acid (BCA)-based protein quantification kit from KMT Bio, China. Subsequently, the samples were denatured in the presence of a 6× loading buffer from KMT Bio, China. Equal amounts of denatured protein samples were subjected to sodium dodecyl sulfate-polyacrylamide gel electrophoresis (SDS-PAGE), and the target protein was then transferred to a nitrocellulose membrane using the wet transfer method with Pall, USA membranes. The membrane was incubated with 5% non-fat milk at 37°C for 1 hour to block non-specific binding, followed by an overnight incubation at 4°C with the recommended concentration of the primary antibody. Afterward, the membranes were washed three times with PBST (PBS buffer with 0.1% Tween-20) for 10 minutes each. The secondary antibody was then appropriately diluted and incubated with the membrane at room temperature for 1 hour. Finally, the membranes were washed three more times with PBST for 10 minutes each, and the protein bands were visualized using an ECL chemiluminescence detection kit from ThermoFisher, USA.

[4] = target: T1, HDAC6; test: BLI binding assay; settings: biotinylated HDAC6 on streptavidin biosensors
Method: BLI experiments were conducted using an Octet Red 96 instrument (ForteBio). Streptavidin-coated biosensors (SA, ForteBio) were utilized, and biotinylated HDAC6 protein (50 μg/mL) was immobilized on the biosensor surface. The immobilization levels typically exceeded 0.3 nm. Ligand-loaded SA biosensors were then exposed to various concentrations of compound 10n. The dissociation constants for the interactions between HDAC6 and compound 10n were determined by plotting the increase in BLI response as a function of […].

[5] = tested on: MGC‐803 cells; test: Cytotoxicity against MGC-803 cells; format: cell-based; settings: Homo sapiens, 72 h
[6] = target: HDAC1 (Homo sapiens, UniProt Q13547); test: HDAC1 enzyme activity assay; format: biochemical; settings: HDAC1 compared to HDAC6
[7] = tested on: HDAC6 (Ac‐α‐tubulin, Ac‐H3 readout); test: Western blot of HDAC6, Ac-H3 and Ac-α-tubulin in cells; format: cell-based
Method: as §1

[8] = tested on: MFC cells; format: in vivo, mice; settings: for tumor growth inhibition rate (TGI): MFC tumor, 615 mice, 14 days
Method: Six-week-old 615 mice (male) were procured from SJA laboratory animals in Hunan, China, and acclimated to a pathogen-free environment for one week before the commencement of the experiment. Subsequently, 5 × 10^5 of gastric cancer cell MFC were subcutaneously administered into the right flank of the mice. Tumor volume was determined using the formula length × width^2/2. […] Following 14 days, the mice were euthanized, and their tumors and vital organs were dissected for analysis. Paraffin sections measuring 4 µm in thickness were subjected to deparaffinization and subsequently treated with 3% hydrogen peroxide to inhibit endogenous peroxidase activity. Following this, slides were prepared to prevent nonspecific antibody binding and were then exposed to primary antibodies targeting HDAC6, Ac-tubulin, Ki-67, and Tunnel. The mice involved in the study were maintained in specific pathogen-free environments, and the experimental procedures were approved by the Ethics Committee of the Zhengzhou University Health Science Centre. The animal experimentation ethics number is ZZU-URIB-2024-O-109. All experimental animals adhered to the ARRIVE guidelines and were strictly in accordance with the National Research Council Guidelines for the Care and Use of Laboratory Animals.

[9] = target: T1, HDAC6; test: HDAC6 enzymatic assay (Ac-Lys-AMC substrate, fluorescence); format: biochemical; design: purchased BPS bioscience, USA; settings: enzyme activity assay
Method: (§2) The HDAC6 substrate Ac-Lys-AMC (Chinapeptides, China), human recombinant protein HDAC6 (100 ng/mL) (BPS bioscience, USA), and the test compounds were incubated together at 37°C in an assay buffer. The assay buffer consisted of 25 mM HEPES (pH 7.5), 100 mM NaCl, 2.5 mM KCl, 0.005% Tween-20, 1 mM MgCl2, and 0.1 mg/mL bovine serum albumin. After incubation for 1 hour, trypsin was added to release the fluorescent fragment.

[10] = target: T2, HDAC8 (Homo sapiens, UniProt Q9BY41); test: HDAC8 enzyme activity assay; format: biochemical; settings: HDAC8 compared to HDAC6
T2 sequence (Q9BY41 1-377): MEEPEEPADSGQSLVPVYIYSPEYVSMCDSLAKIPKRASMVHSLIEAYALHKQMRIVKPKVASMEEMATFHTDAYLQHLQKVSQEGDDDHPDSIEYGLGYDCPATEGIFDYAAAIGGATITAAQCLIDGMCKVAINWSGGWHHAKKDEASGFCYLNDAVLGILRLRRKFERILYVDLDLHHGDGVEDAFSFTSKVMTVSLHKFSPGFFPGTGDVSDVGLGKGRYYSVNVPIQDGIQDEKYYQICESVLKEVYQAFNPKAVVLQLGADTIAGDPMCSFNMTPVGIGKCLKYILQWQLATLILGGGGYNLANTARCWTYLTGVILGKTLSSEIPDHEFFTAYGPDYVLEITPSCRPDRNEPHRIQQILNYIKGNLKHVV
Method: as §2

[11] = Pharmacokinetic study in mice; format: in vivo; settings: male, ICR, mouse, plasma
Method: Six male ICR mice were divided into two groups, receiving compound 10n via intravenous and oral administration, respectively. The intravenous injection group had blood samples collected at 5 min, 15 min, 30 min, 1 h, 2 h, 4 h, 6 h, 8 h, and 24 h post-administration; the oral group had blood samples collected at the same time points. Approximately 0.05 mL of blood was collected for each sample. The concentration of compound 10n in mouse plasma samples was determined using LC-MS/MS method and pharmacokinetic parameters were calculated using WinNolin software.

[12] = tested on: MKN‐45 cells; test: Cytotoxicity against MKN-45 cells; format: cell-based; settings: Homo sapiens, 72 h
[13] = tested on: MGC‐803 cells; test: PD-L1 expression in MGC-803 cells; format: cell-based; settings: compared to vehicle control
[14] = target: HDAC3 (Homo sapiens, UniProt O15379); test: HDAC3 enzyme activity assay; format: biochemical; settings: HDAC3 compared to HDAC6
HDAC3, sequence (O15379 whole entry, species assumed): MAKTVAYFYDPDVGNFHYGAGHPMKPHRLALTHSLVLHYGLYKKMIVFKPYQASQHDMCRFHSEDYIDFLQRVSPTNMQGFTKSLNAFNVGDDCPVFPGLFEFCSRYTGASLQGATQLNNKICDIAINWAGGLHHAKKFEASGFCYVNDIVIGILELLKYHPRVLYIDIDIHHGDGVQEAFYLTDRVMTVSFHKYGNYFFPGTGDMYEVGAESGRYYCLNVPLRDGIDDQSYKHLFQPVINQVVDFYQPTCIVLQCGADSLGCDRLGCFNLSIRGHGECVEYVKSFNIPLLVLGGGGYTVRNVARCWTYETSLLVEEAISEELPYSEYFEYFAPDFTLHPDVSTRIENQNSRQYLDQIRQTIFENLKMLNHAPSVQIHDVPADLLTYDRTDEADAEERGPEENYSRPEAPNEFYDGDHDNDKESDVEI
HDAC3, sequence (Q9Y618 395-489 partner limits assumed, species assumed): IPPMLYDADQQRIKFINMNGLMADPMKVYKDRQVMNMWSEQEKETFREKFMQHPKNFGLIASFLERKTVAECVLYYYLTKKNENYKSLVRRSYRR

HDAC2, sequence (Q92769 whole entry, species assumed): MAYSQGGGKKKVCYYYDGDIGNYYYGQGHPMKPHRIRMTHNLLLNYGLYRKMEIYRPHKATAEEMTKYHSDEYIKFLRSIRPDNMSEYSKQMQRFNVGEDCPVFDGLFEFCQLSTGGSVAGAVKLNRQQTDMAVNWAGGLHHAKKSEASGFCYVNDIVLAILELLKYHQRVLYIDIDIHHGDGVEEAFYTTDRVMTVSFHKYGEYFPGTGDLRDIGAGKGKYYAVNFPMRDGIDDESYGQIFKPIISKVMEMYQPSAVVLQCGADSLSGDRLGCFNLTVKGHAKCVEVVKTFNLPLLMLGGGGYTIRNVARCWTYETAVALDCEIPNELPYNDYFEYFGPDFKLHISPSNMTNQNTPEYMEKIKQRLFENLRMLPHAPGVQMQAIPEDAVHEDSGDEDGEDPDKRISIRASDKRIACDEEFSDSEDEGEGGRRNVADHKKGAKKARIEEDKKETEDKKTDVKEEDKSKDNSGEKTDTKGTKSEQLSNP
HDAC1, sequence (Q13547 whole entry, species assumed): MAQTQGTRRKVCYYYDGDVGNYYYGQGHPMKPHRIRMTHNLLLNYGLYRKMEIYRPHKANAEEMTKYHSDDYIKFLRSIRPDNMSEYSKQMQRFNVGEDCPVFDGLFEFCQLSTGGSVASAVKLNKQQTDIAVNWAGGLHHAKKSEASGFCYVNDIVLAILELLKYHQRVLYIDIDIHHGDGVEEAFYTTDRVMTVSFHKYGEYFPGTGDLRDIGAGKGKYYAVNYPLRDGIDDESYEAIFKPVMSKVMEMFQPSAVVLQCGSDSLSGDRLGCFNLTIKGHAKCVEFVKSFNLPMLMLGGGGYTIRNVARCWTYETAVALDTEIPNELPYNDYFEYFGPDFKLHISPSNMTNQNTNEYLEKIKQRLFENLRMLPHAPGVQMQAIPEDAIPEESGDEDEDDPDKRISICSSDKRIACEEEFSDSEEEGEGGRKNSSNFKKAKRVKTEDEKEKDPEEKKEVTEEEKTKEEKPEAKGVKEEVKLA

In the case of `O=C(NO)c1ccc(CNC(=O)c2cn(CC3CC3)c3ccccc23)cc1` [Compound 10n], the “HDAC6 thermal stabilization (CETSA)” value [1] is reported as “notably stabilized HDAC6”, the “selectivity ratio HDAC2/6” value [2] is reported as 27.8 fold and the “mitochondrial membrane potential ratios” value [3] is reported as “increase”. For the same compound, the “proportion of apoptotic cells” value [3] was “dose‐dependent increase”, the Kd [4] was 330 ± 180 nM and the IC50 [5] was 1070 ± 312 nM. The “selectivity ratio HDAC1/6” value [6] was 133.7 fold, the “acetylated H3 levels and HDAC6” value [7] was “no impact” and the “acetylated α-tubulin levels” value [7] was “dose‐dependent increase”. For the same compound, the “tumor growth inhibition rate (TGI)” value ([8]; oral 10 mg/kg once daily) was 55.3%, the “tumor growth inhibition rate (TGI)” value ([8]; oral 20 mg/kg once daily) was 80.6% and the “toxicity in treated mice (body weight, organs)” value ([8]; MFC tumor-bearing mice, 10 or 20 mg/kg oral) was “no apparent toxicity”. The “HDAC6 protein expression in treated animals” value ([8]; tumor tissue) was “no changes”, the “Ki-67 expression in mice” value ([8]; tumor tissue) was “decreased” and the “levels of Ac-α-tubulin in treated animals” value ([8]; tumor tissue, immunohistochemistry) was “markedly elevated”. The “percentages of CD3+CD8+ cells in tumors” value ([8]; two treatment groups versus control) was “higher than the control”, the IC50 [9] was 3.11 nM and the “selectivity ratio HDAC8/6” value [10] was 622.22 fold. The AUC ([11]; iv) was 350 ± 51.9 ng·h/mL, the half-life ([11]; iv) was 1.61 ± 0.34 h and the AUC ([11]; po) was 730 ± 140 ng·h/mL. It also gave a bioavailability ([11]; po) of 41.8 ± 0.08%, a half-life ([11]; po) of 2 ± 0.44 h and an IC50 [12] of 2700 ± 935 nM. The PD-L1 expression [13] was “dose‐dependent reduction” and the “selectivity ratio HDAC3/6” value [14] was 82.8 fold.
